In US9844521B2, “Pharmaceutical composition comprising ginger extract or shogaol” (UNIVERSITY-INDUSTRY COOPERATION GROUP OF KYUNG HEE …, priority 2008, dated 2017):

Columns and labels:
ICR mice = experiment: Passive avoidance task (cognitive ability enhancement); assay type: in vivo, mouse; conditions: 5 mg/kg oral once per day for 3 days; control 165.50±23.39 seconds; p<0.05
Protocol: Male ICR mice having a weight of 25-28 g were obtained and nurtured in an animal laboratory at Kyunghee University Graduate School of East-West Medicine Science for 7 days for adaptation. Water and feed were freely supplied, and the temperature (22±2[…]), humidity (53±3%), and a cycle of brightness and darkness (12 hours) were automatically controlled. Shogaol used was obtained from WAKO Company (Japan).
Mice were divided into two groups, each of which consisted of 10 mice. A first group (control) was orally administered with 10% dimethyl sulfoxide in an amount of 5 ml per mouse weight kg for 3 days, and a second group was orally administered with 5 mg/kg of shogaol dissolved in 10% dimethyl sulfoxide for 3 days. […]
In a test device having an inner structure divided into two identical spaces with a door therebetween, on a first day, one space was bright and the other space was dark, and a test animal was allowed to stay in the bright space for 10 seconds and then the door was opened, and when the test animal moved toward the dark space, 0.25 mA of an electrical stimulation was applied to the feet of the test animal. After 24 hours, the same passive avoidance task was performed and a time during which the test animal stayed in the light space was measured. […]

C6 cells = experiment: Nerve growth factor secretion induction in C6 cells (NGF measurement kit); assay type: cell-based, mouse; conditions: conditioned media of C6 cells, mean±standard deviation
Protocol: This test was performed using a glioma C6 cell line of […] which is known as a cell line that secretes a nerve growth factor (NGF), and a pheochromocytoma PC12 cell line of […] which is known as a cell line that grows neurite with respect to an NGF in a similar way as a neuron. C6 cells and PC12 cells were obtained from Korean Cell Line Bank (KCLB Nos. 10107 and 21721, respectively). C6 cells were cultured using DMEM media (Gibco BRL, USA) supplemented with 3.4 g/L of sodium bicarbonate (NaHCO3), 10% fetal bovine serum, and 1% penicillin-streptomycin antibiotics (10000 U/ml), and PC12 cells were cultured using RPMI1640 medium (Gibco BRL, USA) supplemented with 2.0 g/L of sodium bicarbonate, 10% horse serum, 5% fetal bovine serum, and 1% penicillin-streptomycin antibiotics (10000 U/ml). The fetal bovine serum and the horse serum were inactivated at a temperature of 55[…] for 30 minutes before use, and all of the cells were cultured in a cell culture vessel with a humidity of 70% at a temperature of 37[…] to which 5% carbon dioxide was supplied. Regarding the PC12 cells, the cells were cultured in a culture vessel that was surface-coated with poly-D-lysine (Sigma) diluted with 50 μg/ml of a PBS buffer solution (pH 7.2) for 1 hour and then washed three times with a PBS buffer solution. Shogaol used was obtained from WAKO Company (Japan).
C6 cells attached to a 100 mm culture vessel were separated from the culture vessel by using 0.25% Trypsin-EDTA (Gibco BRL, USA), and then 10 ml of fresh medium was added to the cells to prepare a cell suspension. Then, the number of viable cells was counted and calculated by using a cell number counter. The cells were divided based on the counted cell number such that 2×10^6 cells were contained in a 100 mm culture dish. After 24 hours of cultivation, the used media was removed and replaced with 10 ml of a DMEM medium containing 2% fetal bovine serum, to which 100 ug/ml of each of the ethanol extract, the n-hexane fraction, the ethyl acetate fraction, the n-butanol fraction, and the water fraction prepared according to Example 1 was added. After 24 hours of cultivation, the respective media were obtained. The obtained media were centrifuged at a rate of 1500 rpm for 10 minutes and then a supernatant was collected, and these media (conditioned media) were used to treat PC12 cells.
The C6 cells were divided and treated with 0.1, 1, 5, 10, and 20 μM of shogaol in the same manner as in Experimental Example 1-1 to prepare conditioned media.
A nerve growth factor secreted from C6 cells by shogaol was quantified by treating a nerve growth factor measurement kit (DY556, R&D system, USA) with the conditioned media. In order to identify an effect of shogaol on nerve growth factor secretion induction, a nerve growth factor in the conditioned media prepared by culturing C6 cells after the cells were treated with shogaol was quantified and the results are shown in FIG. 2.

PC12 cells = experiment: Neurite outgrowth of PC12 cells treated with conditioned media of C6 cells; assay type: cell-based, mouse; conditions: 20 μM in C6 conditioned media, microscope, fourth day after treatment
Protocol: This test was performed using a glioma C6 cell line of […] which is known as a cell line that secretes a nerve growth factor (NGF), and a pheochromocytoma PC12 cell line of […] which is known as a cell line that grows neurite with respect to an NGF in a similar way as a neuron. C6 cells and PC12 cells were obtained from Korean Cell Line Bank (KCLB Nos. 10107 and 21721, respectively). C6 cells were cultured using DMEM media (Gibco BRL, USA) supplemented with 3.4 g/L of sodium bicarbonate (NaHCO3), 10% fetal bovine serum, and 1% penicillin-streptomycin antibiotics (10000 U/ml), and PC12 cells were cultured using RPMI1640 medium (Gibco BRL, USA) supplemented with 2.0 g/L of sodium bicarbonate, 10% horse serum, 5% fetal bovine serum, and 1% penicillin-streptomycin antibiotics (10000 U/ml). […]
C6 cells attached to a 100 mm culture vessel were separated from the culture vessel by using 0.25% Trypsin-EDTA (Gibco BRL, USA), and then 10 ml of fresh medium was added to the cells to prepare a cell suspension. Then, the number of viable cells was counted and calculated by using a cell number counter. The cells were divided based on the counted cell number such that 2×10^6 cells were contained in a 100 mm culture dish. […]

E. coli WP2 uvrA = experiment: Back mutation test (genotoxicity in bacteria), E. coli strain; conditions: compared with negative control
Protocol: In order to evaluate genotoxicity in bacteria, a back mutation test was performed using histidine-requiring salmonella typhimurium strains (TA 100, TA 1535, TA 98, and TA 1537) and an E. coli strain (E. coli WP2 uvrA). As a result, a positive control has a substantially greater colony number than a negative control. […] Accordingly, it was confirmed that the ginger extract and shogaol all had stability in the genotoxicity test.

## CCCCC/C=C/C(=O)CCc1ccc(O)c(OC)c1 [shogaol, (E)-1-(4-hydroxy-3-methoxyphenyl)dec-4-en-3-one]
ICR mice
  latency time: 240.63 ± 24.14 s
C6 cells; 0.1 μM
  secretion amount of a nerve growth factor: 105.46±7.27 % of a control
C6 cells; 1 μM
  secretion amount of a nerve growth factor: 112.72±3.67 % of a control
C6 cells; 5 μM
  secretion amount of a nerve growth factor: 112.97±4.97 % of a control
C6 cells; 10 μM
  secretion amount of a nerve growth factor: 119.44±5.18 % of a control
C6 cells; 20 μM
  secretion amount of a nerve growth factor: 124.81±5.61 % of a control
PC12 cells
  growth of neurite of the PC12 cells: increased
E. coli WP2 uvrA
  colony number (back mutation): the colony number was not increased
